These are literature values, as cited in US5362496A, “Method and therapeutic system for smoking cessation” (priority 1993, dated 1994).

Like-named read-outs stand apart in the source and are kept apart here. Peptide text beside a SMILES is read from it. A value given as a limit tells only on which side of the number the result lay.

For series [1] the following is noted: relative, Sucrose = 1.0.
Series [2] deals with Streptococcus mutans and other oral microorganisms.
For series [3] the following is noted: humans.
The conditions of series [4]: in vitro and in vivo studies.
The conditions of series [5]: free base; mucous membranes and intact skin.
For series [6], the system named is nicotinic cholinergic receptors in the central nervous system and at autonomic ganglia. Particulars: in 10 minutes.
The conditions of series [7]: human cadaver skin in vitro.

As for `CC1=CC(=O)NS(=O)(=O)O1` [Acesulfame], the Sweetness in series [1] was 200. As for `COC(=O)[C@H](Cc1ccccc1)NC(=O)[C@@H](N)CC(=O)O` [Aspartame] (H-Asp-Phe-OMe), the Sweetness in series [1] was 100-200. As for `O=S(=O)(O)NC1CCCCC1` [Cyclamate], the Sweetness in series [1] is 30-40.

As to `OC[C@@H](O)[C@@H](O[C@H]1O[C@H](CO)[C@@H](O)[C@H](O)[C@H]1O)[C@H](O)[C@@H](O)CO` [Maltitol], in series [2], the cariogenicity entry is “generally not fermented to any significant degree and are less cariogenic than sucrose”. Besides, the Sweetness in series [1] was 0.7-0.9.

On to `OC[C@@H](O)[C@@H](O)[C@H](O)[C@H](O)CO` [Mannitol], for which the cariogenicity result in series [2] was “generally not fermented to any significant degree and are less cariogenic than sucrose”. Also, in series [1], the Sweetness is on record as 0.4-0.6. For the compound `COc1ccc([C@@H]2CC(=O)c3c(O)cc(O[C@@H]4O[C@H](CO)[C@@H](O)[C@H](O)[C@H]4O[C@@H]4O[C@@H](C)[C@H](O)[C@@H](O)[C@H]4O)cc3O2)cc1O` [Neohesperidine], the Sweetness in series [1] was 1000. Turning to `O=C(CO)[C@@H](O)[C@H](O)[C@H](O)CO[C@H]1O[C@H](CO)[C@@H](O)[C@H](O)[C@H]1O` [Palantinose], in series [2], the cariogenicity entry was “generally not fermented to any significant degree and are less cariogenic than sucrose”. In addition, the Sweetness in series [1] was 0.4-0.5. For the compound `O=C1NS(=O)(=O)c2ccccc21` [Saccharin], the Sweetness in series [1] is recorded as 400-500.

For `OC[C@@H](O)[C@@H](O)[C@H](O)[C@@H](O)CO` [Sorbitol], the cariogenicity result in series [2] was “generally not fermented to any significant degree and are less cariogenic than sucrose”. In series [1], the Sweetness was 0.5-0.6. As to `OC[C@@H](O)[C@H](O)[C@@H](O)CO` [Xylitol], in series [2], the cariogenicity entry is “generally not fermented to any significant degree and are less cariogenic than sucrose”. Further, the Sweetness in series [1] is given as 1.0. Besides, in series [3], the “effect on food intake” value was “decrease food intake” and the “effect on gastric emptying” value is “prolong gastric emptying”. In addition, the “effect on development of new caries” value in series [4] is “inhibit the development of new caries”. For `CC1(C)[C@@H](O[C@H]2O[C@H](C(=O)O)[C@@H](O)[C@H](O)[C@H]2O[C@@H]2O[C@H](C(=O)O)[C@@H](O)[C@H](O)[C@H]2O)CC[C@]2(C)[C@H]3C(=O)C=C4[C@@H]5C[C@@](C)(C(=O)O)CC[C@]5(C)CC[C@@]4(C)[C@]3(C)CC[C@@H]12` [ammonium glycyrrhizinate], in series [2], the cariogenicity entry was “generally not fermented to any significant degree and are less cariogenic than sucrose”. Turning to `O=C(CO)[C@@H](O)[C@H](O)[C@H](O)CO` [fructose], in series [2], the cariogenicity result was “generally not fermented to any significant degree and are less cariogenic than sucrose”.

Consider `O=C[C@H](O)[C@@H](O)[C@H](O)[C@H](O)CO` [glucose], for which the cariogenicity entry in series [2] is listed as “cariogenic or caries causing”. As for `CN1CCCC1c1cccnc1` (stereo not shown) [nicotine], the lipid solubility result was “highly lipid soluble”. In series [5], the “absorption through membranes and skin” value was “absorbed readily through mucous membranes and intact skin”. For the same compound, the “rise in nicotine blood level required for postsynaptic effects” value in series [6] is “at least 10 ng/mL”. The volatility result (free base) is “extremely volatile”. Further, the light stability entry (ultraviolet light) is listed as “degrades when exposed to ultraviolet light”. For the same compound, the skin permeability in series [7] (first day of patch use) was roughly 0.1 mg/cm^2 ·h. Moreover, the skin permeability in series [7] (later times) is no less than 0.4 mg/cm^2 ·h.

In the case of `OC[C@H]1O[C@@](CO)(O[C@H]2O[C@H](CO)[C@@H](O)[C@H](O)[C@H]2O)[C@@H](O)[C@@H]1O` [sucrose, reference compound], the cariogenicity entry in series [2] is “cariogenic or caries causing”.

For Monellin, the Sweetness in series [1] was 2500. Consider starch, for which, in series [2], the cariogenicity entry was “cariogenic or caries causing”.
